Reference: US9593108B2, “Compounds and methods for antiviral treatment” (PTC Therapeutics, Inc., priority 2009, dated 2017)

Tests used:
[1] = tested on: HCV replicon RNA (GenBank Accession No. AJ242654); test: HCV Replicon Assay (replicon RNA reduction and/or Fluc reporter signal); assay type: cell-based, Hepatitis C virus; details: Hepatitis C virus, 72 h, replicon-containing cells cultured with test compound for up to 3 days
Method in brief: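 Bicistronic replicon-containing cells cultured with compound for up to 3 days, with interferon as positive control. Inhibition quantified by replicon RNA reduction and/or Fluc reporter signal; IC50 values generally derived from replicon RNA reduction.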

| SMILES | IC50 [1] | melting point |
| --- | --- | --- |
| CC(C)(NS(=O)(=O)c1ccc(-c2c(C(N)=O)c3cc(Cl)cnc3n2C2CCC2)nc1)C(F)(F)F [Cpd 326, 5-chloro-1-cyclobutyl-2-{5-[(1,1,1-trifluoro-2-methylpropan-2-yl)sulfamoyl]pyridin-2-yl}-1H-pyrrolo[2,3-b]pyridine-3-carboxamide] | < 500 nM | 239 to 241 °C |
| CC(C)(C)NS(=O)(=O)c1ccc(-c2c(C(N)=O)c3cc(Cl)cnc3n2C2CCC2)nc1 [Cpd 327, 2-[5-(tert-butylsulfamoyl)pyridin-2-yl]-5-chloro-1-cyclobutyl-1H-pyrrolo[2,3-b]pyridine-3-carboxamide] | < 500 nM | 240 to 241 °C |
| NC(=O)c1c(-c2ccc(S(=O)(=O)NC3(C(F)(F)F)CC3)cc2)n(C2CCC2)c2ncc(Cl)cc12 [Cpd 328, 5-chloro-1-cyclobutyl-2-(4-{[1-(trifluoromethyl)cyclopropyl]sulfamoyl}phenyl)-1H-pyrrolo[2,3-b]pyridine-3-carboxamide] | < 500 nM | 271 to 272 °C |
| CC(C)(NS(=O)(=O)c1ccc(-c2c(C(N)=O)c3cc(Cl)cnc3n2C2CCC2)cc1)C(F)(F)F [Cpd 329, 5-chloro-1-cyclobutyl-2-{4-[(1,1,1-trifluoro-2-methylpropan-2-yl)sulfamoyl]phenyl}-1H-pyrrolo[2,3-b]pyridine-3-carboxamide] | < 500 nM | 263 to 265 °C |
| COc1ccc(-n2c(-c3ccc(S(=O)(=O)N[C@@H](C)C(F)(F)F)cn3)c(C#N)c3cc(C(F)(F)F)cnc32)nc1 [Cpd 332, 6-[3-cyano-1-(5-methoxypyridin-2-yl)-5-(trifluoromethyl)-1H-pyrrolo[2,3-b]pyridin-2-yl]-N-[(2S)-1,1,1-trifluoropropan-2-yl]pyridine-3-sulfonamide] | 500 to 2000 nM | 203 to 206 °C |
| COc1ccnc(-n2c(-c3ccc(S(=O)(=O)N[C@@H](C)C(F)(F)F)cn3)c(C#N)c3cc(C(F)(F)F)cnc32)n1 [Cpd 333, 6-[3-cyano-1-(4-methoxypyrimidin-2-yl)-5-(trifluoromethyl)-1H-pyrrolo[2,3-b]pyridin-2-yl]-N-[(2S)-1,1,1-trifluoropropan-2-yl]pyridine-3-sulfonamide] | 2000 to 5000 nM | 209 to 211 °C |
| CC(C)(C)NS(=O)(=O)c1ccc(-c2c(C#N)c3cc(C(F)(F)F)cnc3n2-c2ncccn2)cc1 [Cpd 334, N-tert-butyl-4-[3-cyano-1-(pyrimidin-2-yl)-5-(trifluoromethyl)-1H-pyrrolo[2,3-b]pyridin-2-yl]benzenesulfonamide] | 2000 to 5000 nM | 228 to 230 °C |
| CC(C)(C)NS(=O)(=O)c1ccc(-c2c(C#N)c3cc(C(F)(F)F)cnc3n2-c2cnccn2)cc1 [Cpd 335, N-tert-butyl-4-[3-cyano-1-(pyrazin-2-yl)-5-(trifluoromethyl)-1H-pyrrolo[2,3-b]pyridin-2-yl]benzenesulfonamide] | < 500 nM | 190 to 192 °C |
| CC(C)(C)NS(=O)(=O)c1ccc(-c2c(C#N)c3cc(C(F)(F)F)cnc3n2-c2ccccn2)cc1 [Cpd 336, N-tert-butyl-4-[3-cyano-1-(pyridin-2-yl)-5-(trifluoromethyl)-1H-pyrrolo[2,3-b]pyridin-2-yl]benzenesulfonamide] | 500 to 2000 nM | 227 to 230 °C |
| CC(C)(C)NS(=O)(=O)c1ccc(-c2c(C#N)c3cc(C(F)(F)F)cnc3n2-c2ccccc2)cc1 [Cpd 337, N-tert-butyl-4-[3-cyano-1-phenyl-5-(trifluoromethyl)-1H-pyrrolo[2,3-b]pyridin-2-yl]benzenesulfonamide] | 500 to 2000 nM | 206 to 208 °C |
| Cc1nc(-c2c(C#N)c3cc(C(F)(F)F)cnc3n2C2CCC2)ccc1S(=O)(=O)N[C@@H](C)C(F)(F)F [Cpd 338, 6-[3-cyano-1-cyclobutyl-5-(trifluoromethyl)-1H-pyrrolo[2,3-b]pyridin-2-yl]-2-methyl-N-[(2S)-1,1,1-trifluoropropan-2-yl]pyridine-3-sulfonamide] | < 500 nM | 162 to 165 °C |
| C[C@H](NS(=O)(=O)c1ccc(-c2c(C#N)c3cc(Br)cnc3n2-c2ncccn2)nc1)C(F)(F)F [Cpd 339, 6-[5-bromo-3-cyano-1-(pyrimidin-2-yl)-1H-pyrrolo[2,3-b]pyridin-2-yl]-N-[(2S)-1,1,1-trifluoropropan-2-yl]pyridine-3-sulfonamide] | < 500 nM | 223 to 225 °C |
| C[C@H](NS(=O)(=O)c1ccc(-c2c(C#N)c3cc(Br)cnc3n2-c2cnccn2)nc1)C(F)(F)F [Cpd 340, 6-[5-bromo-3-cyano-1-(pyrazin-2-yl)-1H-pyrrolo[2,3-b]pyridin-2-yl]-N-[(2S)-1,1,1-trifluoropropan-2-yl]pyridine-3-sulfonamide] | < 500 nM | 247 to 248 °C |
| Cc1cnc2c(c1)c(C(N)=O)c(-c1ccc(S(=O)(=O)NC(C)(C)C(F)(F)F)cc1)n2C1CCC1 [Cpd 341, 1-cyclobutyl-5-methyl-2-{4-[(1,1,1-trifluoro-2-methylpropan-2-yl)sulfamoyl]phenyl}-1H-pyrrolo[2,3-b]pyridine-3-carboxamide] | < 500 nM | 235 to 237 °C |
| C[C@H](NS(=O)(=O)c1ccc(-c2c(C#N)c3cc(C4CC4)cnc3n2-c2cnccn2)nc1)C(F)(F)F [Cpd 344, 6-[3-cyano-5-cyclopropyl-1-(pyrazin-2-yl)-1H-pyrrolo[2,3-b]pyridin-2-yl]-N-[(2S)-1,1,1-trifluoropropan-2-yl]pyridine-3-sulfonamide] | < 500 nM | 219 to 221 °C |
| Cc1cnc2c(c1)c(C#N)c(-c1ccc(S(=O)(=O)N[C@@H](C)C(F)(F)F)cn1)n2-c1ncccn1 [Cpd 345, 6-[3-cyano-5-methyl-1-(pyrimidin-2-yl)-1H-pyrrolo[2,3-b]pyridin-2-yl]-N-[(2S)-1,1,1-trifluoropropan-2-yl]pyridine-3-sulfonamide] | < 500 nM | 221 to 223 °C |
| Cc1cnc2c(c1)c(C#N)c(-c1ccc(S(=O)(=O)N[C@@H](C)C(F)(F)F)cn1)n2-c1ccccn1 [Cpd 346, 6-[3-cyano-5-methyl-1-(pyridin-2-yl)-1H-pyrrolo[2,3-b]pyridin-2-yl]-N-[(2S)-1,1,1-trifluoropropan-2-yl]pyridine-3-sulfonamide] | < 500 nM | 165 to 167 °C |
| Cc1cnc2c(c1)c(C#N)c(-c1ccc(S(=O)(=O)N[C@@H](C)C(F)(F)F)cn1)n2-c1cccnc1 [Cpd 347, 6-[3-cyano-5-methyl-1-(pyridin-3-yl)-1H-pyrrolo[2,3-b]pyridin-2-yl]-N-[(2S)-1,1,1-trifluoropropan-2-yl]pyridine-3-sulfonamide] | < 500 nM | 205 to 207 °C |
| Cc1cnc2c(c1)c(C#N)c(-c1ccc(S(=O)(=O)N[C@@H](C)C(F)(F)F)cn1)n2-c1ccccc1 [Cpd 348, 6-(3-cyano-5-methyl-1-phenyl-1H-pyrrolo[2,3-b]pyridin-2-yl)-N-[(2S)-1,1,1-trifluoropropan-2-yl]pyridine-3-sulfonamide] | < 500 nM | 220 to 222 °C |
| Cc1cnc2c(c1)c(C#N)c(-c1ccc(S(=O)(=O)N[C@@H](C)C(F)(F)F)cn1)n2-c1cnccn1 [Cpd 349, 6-[3-cyano-5-methyl-1-(pyrazin-2-yl)-1H-pyrrolo[2,3-b]pyridin-2-yl]-N-[(2S)-1,1,1-trifluoropropan-2-yl]pyridine-3-sulfonamide] | < 500 nM | 220 to 222 °C |
